Where “and” joins values, the source holds several entries; their conditions need not be identical. Equal entries are not always repeated.
Experiments:
[1] = biological target: T1, MMP-14 (Homo sapiens, UniProt P50281); experiment: In vitro MMP inhibition, IC50 determination (fluorogenic substrate I); type: biochemical; details: value in parentheses; read-out: MMP-14 (IC-50)
T1 construct: The catalytic domain enzyme was expressed in E. coli inclusion bodies, solubilized in urea; made in house
Experimental: Several hydroxamic acids and salts thereof were analyzed in in vitro assays to determine their ability to inhibit the MMP cleavage of peptide substrates. […] and IC50 constants were calculated from the assayed hydroxamic acid-MMP interactions. Human recombinant MMP-1, MMP-2, MMP-9, MMP-13, and MMP-14 were used in this assay. All enzymes were prepared in Assignee's laboratories following usual laboratory procedures. Protocols for the preparation and use of these enzymes are available in the scientific literature. See, e.g., Enzyme Nomenclature (Academic Press, San Diego, Calif., 1992) (and the citations therein). See also, Freije et al., “Molecular cloning and expression of collagenase-3, a novel human matrix metalloproteinase produced by breast carcinomas,” J Biol. Chem., 269(24), 16766-16773 (1994). The MMP-14 full length cDNA was provided by Dr. Gregory Goldberg of Washington University (St. Louis, Mo.). The catalytic domain enzyme was expressed in E. coli inclusion bodies, solubilized in urea, purified on a preparative […] reverse phase HPLC column, and then refolded in the presence of zinc acetate and purified for use. All MMPs were activated using 4-aminophenylmercuric acetate (“APMA”, Sigma Chemical, St. Louis, Mo.) or trypsin. MMP-9 also was activated using human recombinant MMP-3 (purified in Assignee's laboratory following standard cloning and purification techniques). […] Substrate (I) was purchased from Baychem (Redwood City, Calif.), and substrate II was prepared Assignee's laboratory. Substrate I was used in the IC50 determination assays, while substrate II was used in the Ki determination assays. In the absence of MMP inhibitory activity, either substrate is cleaved at the Gly-Leu peptide bond. […] The stock solutions of the assayed hydroxamic acids (or salts thereof) were prepared in 1% dimethyl sulfoxide (DMSO). […] The experiment controls contained the same amount of Buffer A/DMSO as the assayed sample, but contained no hydroxamic acid (or salt thereof). The assays from which the IC50 determinations were made were performed as follows. […] Louis, Mo.). The assayed hydroxamic acid samples were incubated in MicrofluorTM White Plates (Dynatech, Chantilly, Va.) and analyzed on a Perkin Elmer […] plate reader (Norwalk, Conn.). The excitation wavelength was 328 nm, and the emission wavelength-415 nm. […] As stated in the previous paragraph, samples containing varying concentrations of the same assayed hydroxamic acid were prepared. Inhibition was measured as a reduction in fluorescent intensity as a function of MMP inhibitor concentration. […] All values in Table 2 are given in nM units. The IC50 measurements are in parenthesis.

[2] = biological target: T2, MMP-13 (Homo sapiens, UniProt P45452); experiment: as above; type: biochemical; details: value in parentheses; read-out: MMP-13 (IC-50)
T2 construct: made in house; host or cells: baculovirus / insect cells
Experimental: Several hydroxamic acids and salts thereof were analyzed in in vitro assays to determine their ability to inhibit the MMP cleavage of peptide substrates. […] and IC50 constants were calculated from the assayed hydroxamic acid-MMP interactions.
Human recombinant MMP-1, MMP-2, MMP-9, MMP-13, and MMP-14 were used in this assay. All enzymes were prepared in Assignee's laboratories following usual laboratory procedures. Protocols for the preparation and use of these enzymes are available in the scientific literature. See, e.g., Enzyme Nomenclature (Academic Press, San Diego, Calif., 1992) (and the citations therein). See also, Freije et al., “Molecular cloning and expression of collagenase-3, a novel human matrix metalloproteinase produced by breast carcinomas,” J Biol. Chem., 269(24), 16766-16773 (1994).
The MMP-13 was obtained as a proenzyme from a full-length cDNA clone using baculovirus, as described by V. A. Luckow, “Insect Cell Expression Technology,” Protein Engineering: Principles and Practice, pp. 183-218 (edited by J. L. Cleland et al., Wiley-Liss, Inc., 1996). The expressed proenzyme was first purified over a heparin agarose column, and then over a chelating zinc chloride column. The proenzyme was then activated by APMA for use in the assay. Further details on baculovirus expression systems may be found in, for example, Luckow et al., J. Virol., 67, 4566-79 (1993). See also, O'Reilly et al, Baculovirus Expression Vectors: A Laboratory Manual (W.H. Freeman and Co., New York, N.Y., 1992). See also, King et al., The Baculovirus Expression System: A Laboratory Guide (Chapman & Hall, London, England, 1992).
All MMPs were activated using 4-aminophenylmercuric acetate (“APMA”, Sigma Chemical, St. Louis, Mo.) or trypsin. MMP-9 also was activated using human recombinant MMP-3 (purified in Assignee's laboratory following standard cloning and purification techniques).
Two fluorogenic, methoxycoumarin-containing polypeptide substrates were used in the MMP inhibition assays: [drawing 427] Here, “Dpa” is 3-(2,4-dinitrophenyl)-L-2,3-diaminopropionyl group, and “MCA” is 7-methoxycoumarin-4-yl acetyl. Substrate (I) was purchased from Baychem (Redwood City, Calif.), and substrate II was prepared Assignee's laboratory. Substrate I was used in the IC50 determination assays, while substrate II was used in the Ki determination assays. In the absence of MMP inhibitory activity, either substrate is cleaved at the Gly-Leu peptide bond. This cleavage separates the highly fluorogenic peptide from the 2,4-dinitrophenyl quencher, thus resulting in increase of fluorescent intensity.
The stock solutions of the assayed hydroxamic acids (or salts thereof) were prepared in 1% dimethyl sulfoxide (DMSO). These stock solutions were diluted in Buffer A (100 mM Tris-HCl, 100 mM NaCl, 10 mM CaCl2, 0.05% polyoxyethylene 23 lauryl ether, pH 7.5) to obtain solutions with different hydroxamic acid concentrations, i.e., assay solutions with different concentrations of the assayed MMP inhibitory compound. The experiment controls contained the same amount of Buffer A/DMSO as the assayed sample, but contained no hydroxamic acid (or salt thereof).
The assays from which the IC50 determinations were made were performed as follows. The MMPs were activated with either trypsin or APMA (4-aminophenylmercuric acetate, Sigma Chemical, St. Louis, Mo.). The assayed hydroxamic acid samples were incubated in Microfluor™ White Plates (Dynatech, Chantilly, Va.) and analyzed on a Perkin Elmer L550 plate reader (Norwalk, Conn.). The excitation wavelength was 328 nm, and the emission wavelength—415 nm. All samples (assayed hydroxamic acids and controls) were incubated in separate plates at room temperature in the presence of 4 μM of MMP substrate (I). As stated in the previous paragraph, samples containing varying concentrations of the same assayed hydroxamic acid were prepared. Inhibition was measured as a reduction in fluorescent intensity as a function of MMP inhibitor concentration. […]

Compound	IC50 [1]	IC50 [2]
CCCCOc1ccc(N2CCN(S(=O)(=O)C3(C(=O)NO)CCN(c4ccc(C)cc4)CC3)CC2)cc1 [Example 295]	> 10000 nM	< 0.1 nM
CCCCOc1ccc(N2CCN(S(=O)(=O)C3(C(=O)NO)CCN(C4CC4)CC3)CC2)cc1 [Example 301]	5630 nM	0.3 nM
C#CCN1CCC(C(=O)NO)(S(=O)(=O)N2CCN(c3ccc(OCCCC)cc3)CC2)CC1 [Example 303]	2240 nM	0.1 nM
CCCCOc1ccc(N2CCN(S(=O)(=O)C3(C(=O)NO)CCN(c4ccc(C)cc4)CC3)CC2)cc1F [Example 296]	> 10000 nM	0.9 nM
CCCCOc1ccc(N2CCN(S(=O)(=O)C3(C(=O)NO)CCN(C(=O)CN)CC3)CC2)cc1 [Example 292]	–	0.7 nM
CS(=O)(=O)c1ccc(N2CCN(S(=O)(=O)C3(C(=O)NO)CCOCC3)CC2)cc1 [Example 300]	–	61.2 nM
CCCCOc1ccc(N2CCN(S(=O)(=O)C3(C(=O)NO)CCN(Cc4cccnc4)CC3)CC2)cc1F [Example 293]	–	0.8 nM
Cc1cc(N2CCN(S(=O)(=O)C3(C(=O)NO)CCOCC3)CC2)ccc1OC(C)C [Example 299]	–	9.3 nM
COCCOc1ccc(N2CCN(S(=O)(=O)C3(C(=O)NO)CCN(C4CC4)CC3)CC2)cc1F [Example 297]	> 10000 nM and 6470 nM	1.7 nM
CCCCOc1ccc(N2CCN(S(=O)(=O)C3(C(=O)NO)CCN(CC4CC4)CC3)CC2)cc1 [Example 298]	> 10000 nM	0.9 nM

Reference: patent US20050209278A1, “Piperidinyl- and piperazinyl-sulfonylmethyl hydroxamic acids and their use as protease inhibitors” (priority 2002, published 2005)
